Source: the supplement of paper PMC10307832

Experiments:
Assay in all cases: relative viability (nuclei count vs DMSO), 5 days (fraction); higher = more cells survive
[1] = compound: CN1C=C(C2=CC=CC=C21)/C=C\3/C4=C(C=CC=N4)NC3=O + COc1cccc2cc(-c3nc([C@H]4CC[C@H](C(=O)O)CC4)n4ncnc(N)c34)[nH]c12 [OSI-027] (partner 0.5 µM)
Summary of the method: (§1)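 Five library-drug doses in √10 steps were combined with a fixed anchor-drug dose, or a single drug was given alone, by pin tool to lung cancer cell lines in 1536-well plates the day after seeding. Nuclei were stained and counted after 5 days. Relative viability is the nuclei count in treated wells over that in vehicle wells, taken as the median of duplicate plates.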

Trametinib + Pemetrexed = compound: CC(=O)Nc1cccc(-n2c(=O)n(C3CC3)c(=O)c3c(Nc4ccc(I)cc4F)n(C)c(=O)c(C)c32)c1 [Trametinib] + Nc1nc2[nH]cc(CCc3ccc(C(=O)N[C@@H](CCC(=O)O)C(=O)O)cc3)c2c(=O)[nH]1 [Pemetrexed] (partner 0.2 µM)
Summary of the method: as §1

Trametinib + Pictilisib = compound: CC(=O)Nc1cccc(-n2c(=O)n(C3CC3)c(=O)c3c(Nc4ccc(I)cc4F)n(C)c(=O)c(C)c32)c1 [Trametinib] + CS(=O)(=O)N1CCN(Cc2cc3nc(-c4cccc5[nH]ncc45)nc(N4CCOCC4)c3s2)CC1 [Pictilisib] (partner 1 µM)
Summary of the method: as §1

[2] = compound: CN1C=C(C2=CC=CC=C21)/C=C\3/C4=C(C=CC=N4)NC3=O + N=C(N)NC(=N)NCCc1ccccc1 [Phenformin] (partner 250 µM)
Summary of the method: as §1

Cell Line | relative viability ([1]; first compound 0.02 µM) | relative viability ([1]; first compound 0.06325 µM) | relative viability ([1]; first compound 0.2 µM) | relative viability ([1]; first compound 0.6325 µM) | relative viability ([1]; first compound 2 µM) | relative viability (Trametinib + Pemetrexed; first compound 0.0025 µM) | relative viability (Trametinib + Pemetrexed; first compound 0.007906 µM) | relative viability (Trametinib + Pemetrexed; first compound 0.025 µM) | relative viability (Trametinib + Pemetrexed; first compound 0.07906 µM) | relative viability (Trametinib + Pemetrexed; first compound 0.25 µM) | relative viability (Trametinib + Pictilisib; first compound 0.0025 µM) | relative viability (Trametinib + Pictilisib; first compound 0.007906 µM) | relative viability (Trametinib + Pictilisib; first compound 0.025 µM) | relative viability (Trametinib + Pictilisib; first compound 0.07906 µM) | relative viability (Trametinib + Pictilisib; first compound 0.25 µM) | relative viability ([2]; first compound 0.02 µM) | relative viability ([2]; first compound 0.06325 µM) | relative viability ([2]; first compound 0.2 µM) | relative viability ([2]; first compound 0.6325 µM) | relative viability ([2]; first compound 2 µM)
NCI-H520 | 0.199 | 0.223 | 0.289 | 0.275 | 0.266 | 0.645 | 0.69 | 0.667 | 0.648 | 0.533 | 0.294 | 0.292 | 0.259 | 0.195 | 0.217 | 0.453 | 0.503 | 0.54 | 0.669 | 0.533
NCI-H1563 | 0.741 | 0.75 | 0.743 | 0.778 | 0.75 | 0.787 | 0.755 | 0.574 | 0.669 | 0.657 | 0.624 | 0.72 | 0.652 | 0.572 | 0.536 | 0.627 | 0.64 | 0.635 | 0.672 | 0.684
NCI-H2405 | 0.703 | 0.611 | 0.62 | 0.657 | 0.711 | 0.995 | 0.947 | 0.464 | – | 0.554 | 0.298 | 0.251 | 0.257 | 0.204 | 0.236 | 0.416 | 0.381 | 0.366 | 0.328 | 0.4
LCLC-97TM1 | 0.372 | 0.447 | 0.542 | 0.476 | 0.482 | 0.188 | 0.238 | 0.181 | 0.176 | 0.152 | 0.141 | 0.135 | 0.11 | 0.128 | 0.0971 | 0.462 | 0.408 | 0.411 | 0.442 | 0.428
NCI-H2228 | 0.576 | 0.452 | – | – | 0.462 | 0.369 | 0.301 | 0.339 | 0.295 | 0.208 | 0.281 | 0.232 | 0.184 | 0.171 | 0.199 | 0.213 | 0.273 | – | – | 0.304
LK-2 | – | – | 0.184 | 0.195 | 0.211 | 0.226 | 0.305 | 0.213 | 0.184 | 0.102 | 0.457 | 0.571 | 0.54 | 0.575 | 0.294 | – | – | – | 0.56 | 0.546
PC-3 [JPC-3] | 0.698 | 0.487 | 0.747 | 0.703 | 0.694 | 0.994 | 0.782 | 0.773 | – | 0.598 | 0.765 | 0.474 | 0.484 | 0.438 | 0.44 | 0.472 | 0.44 | 0.434 | 0.425 | 0.497
NCI-H596 | 0.656 | 0.764 | 0.566 | 0.692 | 0.633 | 0.475 | 0.445 | 0.477 | 0.546 | 0.426 | 0.367 | 0.316 | 0.338 | 0.314 | 0.33 | 0.858 | 0.67 | 0.619 | 0.698 | 0.709
NCI-H460 | 0.81 | 0.726 | 0.649 | 0.63 | 0.676 | 0.0594 | 0.0614 | 0.0626 | 0.0649 | 0.0564 | 0.302 | 0.23 | 0.156 | 0.125 | 0.0758 | 0.553 | 0.526 | 0.52 | 0.56 | 0.571
